# How the values were obtained:
# RIPK2 = RIPK2 (Homo sapiens (Human), UniProt O43353); assay: In vitro RIPK2 inhibition; format: biochemical; conditions: for remaining activity at 1 µM: read-out: % RIPK2 Remaining activity vs DMSO (1 μM, 3 h); for remaining activity at 10 µM: read-out: % RIPK2 Remaining activity vs DMSO (10 μM, 3 h)
# JAK3 = JAK3 (Homo sapiens (Human), UniProt P52333); assay: HTRF KinEASE-TK kinase assay, JAK3; format: biochemical; conditions: for remaining activity at 1 µM: read-out: % JAK3 Remaining activity vs DMSO (1 μM, 3 h); for remaining activity at 10 µM: read-out: % JAK3 Remaining activity vs DMSO (10 μM, 3 h); for IC50: dose response
# Sequence of JAK3 (P52333 781-1124): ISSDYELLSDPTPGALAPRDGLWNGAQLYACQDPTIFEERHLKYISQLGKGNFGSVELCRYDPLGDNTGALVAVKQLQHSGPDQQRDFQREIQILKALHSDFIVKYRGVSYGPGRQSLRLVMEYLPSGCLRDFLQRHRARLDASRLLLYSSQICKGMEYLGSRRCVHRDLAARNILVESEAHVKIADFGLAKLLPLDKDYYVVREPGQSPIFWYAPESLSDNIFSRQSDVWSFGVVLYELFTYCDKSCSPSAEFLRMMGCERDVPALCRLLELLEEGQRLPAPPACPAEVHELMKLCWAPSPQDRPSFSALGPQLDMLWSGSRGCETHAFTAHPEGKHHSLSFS
# Description: (§1) Kinase activity was monitored using a HTRF® KinEASE-TK kit from Cisbio (62TK0PEC). […] JAK-3 was purchased from Promega. 0.0133 ng/ul JAK3 (0.21 nM) was preincubated in the absence or presence of inhibitor at room temperature for 3 hours. Reaction with substrate was then initiated by adding biotinylated substrate and ATP. […] The reaction was terminated by adding 31.25 nM SA-XL665 and 100 fold diluted europium labelled antibody (Eu-Ab), diluted in 1× detection buffer that contained EDTA. After 60 min of incubation, the fluorescence emission was measured at 620 nm and 665 nm. The ratio of Em 665 nm to Em 620 nm was proportional to the amount of substrate phosphorylated by the kinase.
# BTK [1] = target: T1, BTK (Homo sapiens (Human), UniProt Q06187); assay: Ramos RA1 cell lysis and immunoassay, phospho-BTK (Y223) inhibition; format: cell-based; set-up: key: X: BTK bound and autophosphoration of BTK inhibited in cells; conditions: RAMOS cells
# T1 sequence (Q06187 whole entry): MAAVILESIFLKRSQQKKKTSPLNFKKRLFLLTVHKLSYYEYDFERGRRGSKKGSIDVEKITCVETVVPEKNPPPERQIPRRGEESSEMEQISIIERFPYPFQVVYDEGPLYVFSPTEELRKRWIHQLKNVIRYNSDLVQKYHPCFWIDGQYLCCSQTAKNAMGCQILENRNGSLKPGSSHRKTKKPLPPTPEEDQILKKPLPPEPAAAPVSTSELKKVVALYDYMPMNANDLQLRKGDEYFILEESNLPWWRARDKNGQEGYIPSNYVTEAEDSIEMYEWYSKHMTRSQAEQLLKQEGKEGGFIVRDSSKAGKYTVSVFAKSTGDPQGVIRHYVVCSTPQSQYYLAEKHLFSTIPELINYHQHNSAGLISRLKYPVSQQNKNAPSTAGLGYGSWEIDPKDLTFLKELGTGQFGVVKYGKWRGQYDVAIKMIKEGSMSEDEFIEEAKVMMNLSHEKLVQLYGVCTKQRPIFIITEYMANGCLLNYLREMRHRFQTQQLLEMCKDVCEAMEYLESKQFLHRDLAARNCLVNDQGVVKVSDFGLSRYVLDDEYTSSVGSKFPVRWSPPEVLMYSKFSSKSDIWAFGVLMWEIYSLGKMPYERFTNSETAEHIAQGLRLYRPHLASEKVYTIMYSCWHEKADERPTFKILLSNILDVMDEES
# Description: (§2) Ramos RA 1 cells (ATCC) were cultured in RPMI-1640 media (Wisent) supplemented with 10% heat-inactivated FBS and 1% penicillin/streptomycin. Cells were seeded in 6-well plates at 1.71×10^6 cells/well and incubated at 37° C., 5% CO2 for 16 hours. Cells were treated with compound at the indicated concentrations or DMSO alone and incubated at 37° C., 5% CO2 for 24 hours. Cell suspensions were centrifugated at 1,400-1,600 RPM for 5 minutes at room temperature and supernatants were discarded. Cell pellets were resuspended with 1× RIPA buffer (Millipore) and incubated on ice for 15 minutes. Protein lysates were extracted by centrifugating at 20,000 RPM for 20 minutes at 4° C. Proteins were separated and total BTK protein levels were quantified by Simple Western Immunoassay (ProteinSimple) using the 12-230 kDa Jess Separation Module according to the manufacturer's protocol, using a protein concentration of 0.25 μg/μl and antibodies targeting BTK (clone #D3H5, Cell Signalling) and β-Actin (clone #AC-15, Santa Cruz) diluted to 1:400 and 1:10, respectively, where the latter was used as a loading control. An equal ratio of rabbit and mouse HRP-conjugated secondary antibodies was used for detection. BTK protein levels were quantified relative to S-Actin loading levels and subsequently normalized to the DMSO control. Phosphorylated BTK levels were quantified using the Protein Normalization Assay Module for Jess (ProteinSimple) according to the manufacturer's protocol, using a protein concentration of 1.5 μg/μl and an antibody targeting pBTK (Y223) (Cell Signalling) diluted to 1:50. Phosphorylated BTK levels were quantified relative to the Protein Normalization Reagent and subsequently normalized to the DMSO control.
# BTK [2] = target: T1, BTK; assay: HTRF KinEASE-TK kinase assay, BTK; format: biochemical; conditions: 3 h preincubation; for remaining activity at 1 µM: 1 μM compound, read-out: % BTK Remaining activity vs DMSO (1 μM, 3 h); for remaining activity at 10 µM: 10 μM compound, read-out: % BTK Remaining activity vs DMSO (10 μM, 3 h)
# Description: Kinase activity was monitored using a HTRF® KinEASE-TK kit from Cisbio (62TK0PEC). For BTK, the 1× kinase buffer was supplemented with 10 mM MnCl2, 5 mM MgCl2, 1 uM ATPγS, 1 mM TCEP and 100 fold diluted Supplementary Enzyme Buffer. BTK was purchased from Promega. […] Reaction with substrate was then initiated by adding biotinylated substrate and ATP and the reaction was allowed to proceed for 45 min. […] After 60 min of incubation, the fluorescence emission was measured at 620 nm and 665 nm. The ratio of Em 665 nm to Em 620 nm was proportional to the amount of substrate phosphorylated by the kinase.
# FGFR4 = FGFR4 (Homo sapiens (Human), UniProt P22455); assay: HTRF KinEASE-TK kinase assay, FGFR4; format: biochemical; conditions: for remaining activity at 1 µM: read-out: % FGFR4 Remaining activity vs DMSO (1 μM, 3 h); for remaining activity at 10 µM: read-out: % FGFR4 Remaining activity vs DMSO (10 μM, 3 h); for IC50: dose response
# Sequence of FGFR4 (P22455 22-802): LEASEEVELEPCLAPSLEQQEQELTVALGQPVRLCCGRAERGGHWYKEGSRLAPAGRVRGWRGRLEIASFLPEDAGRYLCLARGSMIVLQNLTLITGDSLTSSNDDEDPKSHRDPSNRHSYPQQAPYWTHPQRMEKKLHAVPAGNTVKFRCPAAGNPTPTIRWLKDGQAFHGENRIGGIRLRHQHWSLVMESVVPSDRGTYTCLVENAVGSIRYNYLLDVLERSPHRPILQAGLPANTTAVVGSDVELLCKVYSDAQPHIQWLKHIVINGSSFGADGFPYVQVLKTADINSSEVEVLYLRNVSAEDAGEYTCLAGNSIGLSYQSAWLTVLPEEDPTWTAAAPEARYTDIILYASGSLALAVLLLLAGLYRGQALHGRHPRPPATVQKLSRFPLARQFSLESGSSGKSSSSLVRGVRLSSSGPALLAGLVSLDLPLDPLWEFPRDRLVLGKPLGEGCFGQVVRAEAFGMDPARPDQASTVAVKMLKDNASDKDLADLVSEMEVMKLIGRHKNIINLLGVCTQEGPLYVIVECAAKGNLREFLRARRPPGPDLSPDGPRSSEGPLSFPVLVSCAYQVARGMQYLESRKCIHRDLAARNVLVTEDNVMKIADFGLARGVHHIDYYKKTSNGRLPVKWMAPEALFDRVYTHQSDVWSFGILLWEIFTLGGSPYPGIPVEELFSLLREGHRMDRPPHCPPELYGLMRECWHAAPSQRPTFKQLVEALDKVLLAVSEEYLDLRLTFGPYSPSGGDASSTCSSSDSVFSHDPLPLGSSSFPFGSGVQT
# Description: as §1, with “FGFR-4” for “JAK-3”, “0.333” for “0.0133”, “FGFR4 (5.12” for “JAK3 (0.21”
# BMX = BMX (Homo sapiens (Human), UniProt P51813); assay: HTRF KinEASE-TK kinase assay, BMX; format: biochemical; conditions: for remaining activity at 1 µM: 1 uM compound; for remaining activity at 1 µM / remaining activity at 10 µM: 3 h preincubation; for remaining activity at 10 µM: 10 uM compound
# Sequence of BMX (P51813 whole entry): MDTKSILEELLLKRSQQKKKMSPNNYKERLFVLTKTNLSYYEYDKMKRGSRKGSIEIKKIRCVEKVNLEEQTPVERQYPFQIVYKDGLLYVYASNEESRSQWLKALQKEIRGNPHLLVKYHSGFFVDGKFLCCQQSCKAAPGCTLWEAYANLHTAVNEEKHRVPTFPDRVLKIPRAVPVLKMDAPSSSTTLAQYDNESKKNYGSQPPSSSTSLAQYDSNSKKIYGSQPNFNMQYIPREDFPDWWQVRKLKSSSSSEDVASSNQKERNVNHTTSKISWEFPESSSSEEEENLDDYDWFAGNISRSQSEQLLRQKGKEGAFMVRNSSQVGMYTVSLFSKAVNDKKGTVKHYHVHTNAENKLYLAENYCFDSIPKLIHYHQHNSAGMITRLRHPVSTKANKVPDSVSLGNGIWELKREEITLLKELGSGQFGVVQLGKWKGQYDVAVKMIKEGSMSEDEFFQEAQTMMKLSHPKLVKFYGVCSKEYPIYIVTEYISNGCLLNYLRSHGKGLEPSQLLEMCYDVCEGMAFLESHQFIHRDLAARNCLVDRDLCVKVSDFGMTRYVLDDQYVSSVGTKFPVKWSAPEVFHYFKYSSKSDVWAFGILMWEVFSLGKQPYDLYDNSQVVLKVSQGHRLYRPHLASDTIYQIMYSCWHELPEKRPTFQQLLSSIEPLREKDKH
# Description: as §1, with “BMX” for “JAK-3”, “0.333” for “0.0133”, “BMX (3.03” for “JAK3 (0.21”, “The reaction” for “Reaction”, “Reaction” for “The reaction”
# BTK [3] = target: T1, BTK; assay: Ramos RA1 cell lysis and immunoassay, total BTK degradation; format: cell-based; set-up: key to % BTK degradation (RAMOS, 24 h): Y: BTK bound in cells and BTK degradation occurred; concentration or dose not given beside the values; conditions: RAMOS cells
# Description: as §2
# EGFR = EGFR (Homo sapiens (Human), UniProt P00533); assay: HTRF KinEASE-TK kinase assay, EGFR; format: biochemical; conditions: 3 h preincubation; for remaining activity at 1 µM: 1 μM compound, read-out: % EGFR Remaining activity vs DMSO (1 μM, 3 h); for remaining activity at 10 µM: 10 μM compound, read-out: % EGFR Remaining activity vs DMSO (10 μM, 3 h)
# Sequence of EGFR (P00533 25-1210): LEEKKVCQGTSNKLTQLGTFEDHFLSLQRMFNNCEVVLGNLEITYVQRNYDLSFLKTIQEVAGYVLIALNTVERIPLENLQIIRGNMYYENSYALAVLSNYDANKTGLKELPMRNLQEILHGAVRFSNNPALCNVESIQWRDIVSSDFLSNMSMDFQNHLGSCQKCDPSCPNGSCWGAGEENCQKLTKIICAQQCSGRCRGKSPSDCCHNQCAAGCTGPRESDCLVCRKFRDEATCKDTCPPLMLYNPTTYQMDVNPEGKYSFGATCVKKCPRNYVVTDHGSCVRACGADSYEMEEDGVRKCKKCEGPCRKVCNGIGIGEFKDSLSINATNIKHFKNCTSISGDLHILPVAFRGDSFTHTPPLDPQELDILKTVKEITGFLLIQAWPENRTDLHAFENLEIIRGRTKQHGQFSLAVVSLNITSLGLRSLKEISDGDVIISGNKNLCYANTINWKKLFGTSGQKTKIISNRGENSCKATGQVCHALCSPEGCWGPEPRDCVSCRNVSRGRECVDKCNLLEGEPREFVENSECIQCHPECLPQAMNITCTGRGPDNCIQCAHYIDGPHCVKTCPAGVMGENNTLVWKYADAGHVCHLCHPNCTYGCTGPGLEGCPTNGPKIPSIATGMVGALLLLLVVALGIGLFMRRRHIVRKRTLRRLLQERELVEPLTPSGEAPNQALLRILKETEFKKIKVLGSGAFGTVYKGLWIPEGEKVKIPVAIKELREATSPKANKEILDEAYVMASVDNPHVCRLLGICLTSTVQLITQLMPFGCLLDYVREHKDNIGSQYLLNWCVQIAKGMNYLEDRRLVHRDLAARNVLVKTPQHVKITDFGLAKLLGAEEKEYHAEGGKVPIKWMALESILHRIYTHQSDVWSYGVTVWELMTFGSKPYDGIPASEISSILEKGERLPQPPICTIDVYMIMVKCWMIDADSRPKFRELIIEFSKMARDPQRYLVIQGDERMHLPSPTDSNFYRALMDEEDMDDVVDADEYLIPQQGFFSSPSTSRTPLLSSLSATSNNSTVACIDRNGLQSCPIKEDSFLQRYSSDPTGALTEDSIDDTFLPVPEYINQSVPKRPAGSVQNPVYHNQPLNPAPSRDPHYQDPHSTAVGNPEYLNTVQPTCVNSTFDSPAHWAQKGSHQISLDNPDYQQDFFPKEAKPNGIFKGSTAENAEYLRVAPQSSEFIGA
# Description: Kinase activity was monitored using a HTRF® KinEASE-TK kit from Cisbio (62TK0PEC). The buffer used was 1× kinase buffer supplemented with 2 mM MnCl2, 5 mM MgCl2, 1 mM TCEP and 100× diluted Supplementary Enzyme Buffer. EGFR was purchased from Promega. […] Reaction with substrate was then initiated by adding biotinylated substrate and ATP. […] After 60 min of incubation, the fluorescence emission was measured at 620 nm and 665 nm. The ratio of Em 665 nm to Em 620 nm was proportional to the amount of substrate phosphorylated by the kinase.
# For initial screening, enzymes were pre incubated with compounds at 2 different concentrations (1 and 10 uM final) and 0.5% DMSO.
# Sequence of RIPK2 (O43353 whole entry, species assumed): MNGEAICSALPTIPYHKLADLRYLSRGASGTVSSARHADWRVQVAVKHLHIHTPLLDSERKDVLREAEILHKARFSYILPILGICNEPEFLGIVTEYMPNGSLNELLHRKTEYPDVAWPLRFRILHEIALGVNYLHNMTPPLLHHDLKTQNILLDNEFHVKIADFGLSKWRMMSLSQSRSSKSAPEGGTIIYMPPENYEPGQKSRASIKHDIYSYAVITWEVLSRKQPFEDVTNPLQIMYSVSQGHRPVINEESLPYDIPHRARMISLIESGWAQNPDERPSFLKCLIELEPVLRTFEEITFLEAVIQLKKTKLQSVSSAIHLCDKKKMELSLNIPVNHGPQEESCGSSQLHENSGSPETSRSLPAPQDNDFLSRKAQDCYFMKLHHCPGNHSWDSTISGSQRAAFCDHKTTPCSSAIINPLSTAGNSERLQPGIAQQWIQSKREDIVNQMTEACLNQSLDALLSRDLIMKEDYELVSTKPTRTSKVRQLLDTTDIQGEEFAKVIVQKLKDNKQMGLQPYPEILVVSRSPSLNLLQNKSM
Compound,remaining activity at 1 µM (RIPK2),remaining activity at 10 µM (RIPK2),remaining activity at 1 µM (JAK3),remaining activity at 10 µM (JAK3),"pBTK inhibition (RAMOS, 24 h) (BTK [1]; compound concentration 1 μM)",remaining activity at 1 µM (BTK [2]),remaining activity at 10 µM (BTK [2]),remaining activity at 1 µM (FGFR4),remaining activity at 10 µM (FGFR4),remaining activity at 1 µM (BMX),remaining activity at 10 µM (BMX),"% BTK degradation (RAMOS, 24 h) (BTK [3])",remaining activity at 1 µM (EGFR),remaining activity at 10 µM (EGFR),IC50 (JAK3),"pBTK inhibition (RAMOS, 24 h) (BTK [1]; compound concentration 5 μM)",IC50 (FGFR4),IC50 (BMX; dose response)
"Nc1ncnc2c1c(-c1ccc(Oc3ccccc3)cc1)nn2[C@@H]1CCCN(C(=O)c2c(F)c(F)c(F)c(F)c2S(N)(=O)=O)C1 [Compound I-35, (R)-2-(3-(4-amino-3-(4-phenoxyphenyl)-1H-pyrazolo[3,4-d]pyrimidin-1-yl)piperidine-1-carbonyl)-3,4,5,6-tetrafluorobenzenesulfonamide]",> 90%,> 90%,> 90%,> 90%,X,< 50%,< 50%,50 to 90%,< 50%,< 50%,< 50%,Y,> 90%,> 90%,,,,
"CS(=O)(=O)c1c(F)c(F)c(F)c(F)c1C(=O)n1ccc2c(N)ncnc21 [Compound I-49, (4-amino-7H-pyrrolo[2,3-d]pyrimidin-7-yl)(2,3,4,5-tetrafluoro-6-(methylsulfonyl)phenyl)methanone]",< 50%,< 50%,> 90%,> 90%,,50 to 90%,< 50%,50 to 90%,< 50%,50 to 90%,< 50%,Y,> 90%,> 90%,,,,
"COCCOc1ccc(Nc2ncc(F)c(Nc3cccc(NS(=O)(=O)c4c(F)c(F)c(F)c(F)c4OC(F)F)c3)n2)cc1 [Compound I-54, 2-(difluoromethoxy)-3,4,5,6-tetrafluoro-N-(3-((5-fluoro-2-((4-(2-methoxyethoxy)phenyl)amino)pyrimidin-4-yl)amino)phenyl)benzenesulfonamide]",,,< 50%,< 50%,,< 50%,< 50%,< 50%,< 50%,< 50%,< 50%,,> 90%,50 to 90%,> 1000 nM,X,< 1000 nM,
"COCCOc1ccc(Nc2ncc(F)c(NCCCNS(=O)(=O)c3c(F)c(F)c(F)c(F)c3C(F)F)n2)cc1 [Compound I-52, 2-(difluoromethyl)-3,4,5,6-tetrafluoro-N-(3-((5-fluoro-2-((4-(2-methoxyethoxy)phenyl)amino)pyrimidin-4-yl)amino)propyl)benzenesulfonamide]",,,< 50%,< 50%,X,< 50%,< 50%,> 90%,< 50%,< 50%,< 50%,,> 90%,50 to 90%,< 1000 nM,,,
"Nc1ncnc2c1c(-c1ccc(Oc3ccccc3)cc1)nn2C1CCN(S(=O)(=O)c2c(F)c(F)c(F)c(F)c2OC(F)F)C1 (stereo in doubt) [Compound I-26, (R)-1-(1-((2-(difluoromethoxy)-3,4,5,6-tetrafluorophenyl)sulfonyl)pyrrolidin-3-yl)-3-(4-phenoxyphenyl)-1H-pyrazolo[3,4-d]pyrimidin-4-amine]",,,50 to 90%,50 to 90%,X,< 50%,< 50%,< 50%,< 50%,< 50%,< 50%,,> 90%,50 to 90%,,,< 1000 nM,< 1000 nM

# Reference: patent US20240018153A1, “BENZENESULFONAMIDE DERIVATIVES AND USES THEREOF” (2692372 ONTARIO, INC., priority 2020, published 2024)
